Measured values reported in patent US20040116522A1, “Medicinal solutions” (priority 2001, published 2004).

Key:
[1] = Serum drug concentration after subcutaneous implantation of the minipump of Example 6; type: in vivo; details: from s.c. minipump of Example 6 in male SD rats
Text: The subcutaneous implantation type minipump prepared in Example 6 was subcutaneously implanted in the back of 7-week-old male SD rats. After a predetermined time after the implantation, blood was drawn from the tail vein of the rats, and serum was separated.

[2] = cited from earlier work

Row | Period of sustained release [1] | Compound | pKa [2]
1 | 21 days | CONC(=O)Nc1ccc(-c2sc3c(c2CN(C)Cc2ccccc2)c(=O)n(-c2ccccc2)c(=O)n3Cc2c(F)cccc2F)cc1 [Reference Example 7, 5-(N-Benzyl-N-methylaminomethyl)-1-(2,6-difluorobenzyl)-6-[4-(3-methoxyureido)phenyl]-3-phenylthieno[2,3-d]pyrimidine-2,4(1H,3H)-dione] | –
2 | – | O=C(O)c1cc2ccccc2cc1O [3-hydroxy-2-naphthoic acid] | 2.708
